The values that follow come from ChEMBL document CHEMBL5465560, “Selectivity Literature for EUbOPEN Chemogenomic Library” (2024).

Test [1] addresses T1, Cytoplasmic tyrosine-protein kinase BMX (Homo sapiens) (UniProt P51813).
T1 sequence (whole entry): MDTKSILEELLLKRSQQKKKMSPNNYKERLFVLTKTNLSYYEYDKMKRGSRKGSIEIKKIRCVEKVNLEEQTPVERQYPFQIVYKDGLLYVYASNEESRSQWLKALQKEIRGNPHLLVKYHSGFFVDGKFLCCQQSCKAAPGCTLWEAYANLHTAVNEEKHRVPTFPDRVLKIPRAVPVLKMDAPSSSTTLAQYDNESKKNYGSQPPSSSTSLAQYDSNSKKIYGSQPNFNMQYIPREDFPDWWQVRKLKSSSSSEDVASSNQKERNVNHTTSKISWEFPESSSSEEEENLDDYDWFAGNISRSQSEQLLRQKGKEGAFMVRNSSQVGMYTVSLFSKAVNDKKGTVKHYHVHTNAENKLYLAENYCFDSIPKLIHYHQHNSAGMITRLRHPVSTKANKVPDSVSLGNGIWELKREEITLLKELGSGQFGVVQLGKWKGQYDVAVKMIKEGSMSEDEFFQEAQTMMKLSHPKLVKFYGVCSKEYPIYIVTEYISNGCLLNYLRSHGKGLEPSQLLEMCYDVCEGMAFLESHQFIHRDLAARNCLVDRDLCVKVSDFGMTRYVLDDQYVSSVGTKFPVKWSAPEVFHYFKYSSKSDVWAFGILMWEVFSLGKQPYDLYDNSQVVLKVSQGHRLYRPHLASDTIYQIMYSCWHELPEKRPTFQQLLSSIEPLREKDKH
The experiment in a line: Selectivity interaction (KinomeScan (DiscoverX)) EUB0000666a BMX. To be noted: at 10 µM.

Test [2] has as its target T2, Cyclin-dependent kinase-like 5 (Homo sapiens) (UniProt O76039).
T2 sequence (whole entry): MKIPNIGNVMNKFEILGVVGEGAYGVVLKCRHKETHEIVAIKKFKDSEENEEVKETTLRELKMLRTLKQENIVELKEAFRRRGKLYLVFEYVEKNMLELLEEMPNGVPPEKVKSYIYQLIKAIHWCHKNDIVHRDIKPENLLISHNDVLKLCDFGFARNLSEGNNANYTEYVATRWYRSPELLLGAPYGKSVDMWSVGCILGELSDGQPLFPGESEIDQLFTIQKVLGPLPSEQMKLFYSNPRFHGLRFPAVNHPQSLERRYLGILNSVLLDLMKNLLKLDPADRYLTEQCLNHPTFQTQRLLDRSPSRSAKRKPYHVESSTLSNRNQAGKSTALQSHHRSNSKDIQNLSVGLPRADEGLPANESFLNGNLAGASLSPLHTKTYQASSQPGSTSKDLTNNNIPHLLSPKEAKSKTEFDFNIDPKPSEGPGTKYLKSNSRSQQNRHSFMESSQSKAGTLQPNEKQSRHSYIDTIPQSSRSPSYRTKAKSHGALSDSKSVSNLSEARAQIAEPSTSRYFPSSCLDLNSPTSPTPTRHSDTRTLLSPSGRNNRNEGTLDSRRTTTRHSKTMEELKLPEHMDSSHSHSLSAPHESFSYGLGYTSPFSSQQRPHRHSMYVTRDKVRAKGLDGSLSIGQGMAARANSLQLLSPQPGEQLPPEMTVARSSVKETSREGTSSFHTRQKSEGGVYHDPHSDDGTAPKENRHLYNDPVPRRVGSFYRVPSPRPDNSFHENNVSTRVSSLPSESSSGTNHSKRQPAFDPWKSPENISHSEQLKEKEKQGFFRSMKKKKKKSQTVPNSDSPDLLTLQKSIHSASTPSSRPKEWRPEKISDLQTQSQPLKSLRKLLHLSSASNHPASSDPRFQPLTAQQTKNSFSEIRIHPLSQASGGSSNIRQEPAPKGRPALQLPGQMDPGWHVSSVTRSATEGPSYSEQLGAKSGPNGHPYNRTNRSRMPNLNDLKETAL
Nature of the test: Selectivity interaction (KinomeScan (DiscoverX)) EUB0000666a CDKL5. To be noted: at 10 µM.

For test [3], the target named is T3, Mitogen-activated protein kinase kinase kinase kinase 2 (Homo sapiens) (UniProt Q12851).
T3 sequence (whole entry): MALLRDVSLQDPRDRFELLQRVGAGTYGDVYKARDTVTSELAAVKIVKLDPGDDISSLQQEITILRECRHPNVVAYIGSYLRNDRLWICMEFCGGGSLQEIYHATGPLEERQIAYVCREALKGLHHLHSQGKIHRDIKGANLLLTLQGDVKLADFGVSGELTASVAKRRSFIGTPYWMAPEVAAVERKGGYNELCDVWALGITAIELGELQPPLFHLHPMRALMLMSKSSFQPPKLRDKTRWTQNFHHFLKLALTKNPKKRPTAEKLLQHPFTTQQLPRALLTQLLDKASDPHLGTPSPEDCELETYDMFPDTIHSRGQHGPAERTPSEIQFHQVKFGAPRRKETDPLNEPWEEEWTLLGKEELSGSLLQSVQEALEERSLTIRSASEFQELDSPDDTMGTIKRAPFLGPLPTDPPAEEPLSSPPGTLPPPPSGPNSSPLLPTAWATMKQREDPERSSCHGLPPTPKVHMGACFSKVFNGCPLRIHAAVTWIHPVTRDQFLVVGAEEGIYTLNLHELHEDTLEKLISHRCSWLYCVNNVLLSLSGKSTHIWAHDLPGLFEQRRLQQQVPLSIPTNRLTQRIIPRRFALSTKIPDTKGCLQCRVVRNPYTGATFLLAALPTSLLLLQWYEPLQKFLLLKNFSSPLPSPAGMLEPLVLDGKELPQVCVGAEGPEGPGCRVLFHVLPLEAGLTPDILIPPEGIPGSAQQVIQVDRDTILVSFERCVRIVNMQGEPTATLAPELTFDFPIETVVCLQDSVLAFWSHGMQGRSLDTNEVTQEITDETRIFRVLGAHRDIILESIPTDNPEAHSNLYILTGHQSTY
The experiment in a line: Selectivity interaction (KinomeScan (DiscoverX)) EUB0001079a MAP4K2. To be noted: at 1 µM.

In test [4] the target is T4, Serine/threonine-protein kinase Sgk3 (Homo sapiens) (UniProt Q96BR1).
T4 sequence (whole entry): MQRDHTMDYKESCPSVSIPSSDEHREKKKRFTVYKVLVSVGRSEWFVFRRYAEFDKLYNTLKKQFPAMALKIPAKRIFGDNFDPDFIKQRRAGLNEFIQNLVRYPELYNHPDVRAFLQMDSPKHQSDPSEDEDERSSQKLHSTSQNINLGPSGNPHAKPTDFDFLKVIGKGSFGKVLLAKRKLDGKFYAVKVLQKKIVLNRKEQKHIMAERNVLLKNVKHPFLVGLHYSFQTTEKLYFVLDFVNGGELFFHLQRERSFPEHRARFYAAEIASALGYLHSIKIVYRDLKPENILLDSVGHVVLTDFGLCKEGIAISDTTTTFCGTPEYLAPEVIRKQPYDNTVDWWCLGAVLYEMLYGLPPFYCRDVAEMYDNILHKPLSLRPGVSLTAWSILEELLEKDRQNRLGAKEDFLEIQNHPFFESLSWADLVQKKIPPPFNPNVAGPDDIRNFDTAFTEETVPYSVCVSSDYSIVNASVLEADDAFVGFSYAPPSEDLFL
The experiment in a line: Selectivity interaction (Kinase panel (Invitrogen)) EUB0000639a SGK3. The conditions noted are these: at 200 nM.

Regarding `O=C(NOC[C@H](O)CO)c1ccc(F)c(F)c1Nc1ccc(I)cc1F`, the % of control in test [1] came to 92%; in test [2] it was 67%.

With `Nc1cnc(N2CCc3cc(S(=O)(=O)Nc4c(F)cc(Cl)cc4F)cc(N4CCCC4=O)c32)nc1` [TP-020n], the % of control in test [3] was determined as 90%.

In test [4], `CC[C@@H]1[C@H](F)C(=O)N[C@@H]1COc1nccc2cc(C(N)=O)c(OC)cc12` [ZIMLOVISERTIB] yielded a % of inhibition of 1.19%.
